Series [1] can be described thus: Tmax in fasted ICR mouse at 10 mg/kg, po measured for 24 hrs by LC-MS analysis. Format: ADME, organism-based. The conditions noted are these: in vivo.
A short description of series [2]: Oral bioavailability in fasted ICR mouse at 10 mg/kg measured for 24 hrs by LC-MS analysis. Format: ADME, organism-based. The conditions noted are these: in vivo.
Series [3] is described as follows: Toxicity in […] SCID mouse model xenografted with human NCI-H1373 cells assessed as body weight loss at 30 mg/kg, po measured for 21 days. Format: organism-based. The conditions noted are these: in vivo, 504 h, time 21 day.
Series [4] in a line: Half life in fasted Beagle dog at 10 mg/kg, po measured for 24 hrs by LC-MS analysis. Format: ADME, organism-based, Canis lupus familiaris. The conditions noted are these: in vivo.
The nature of series [5]: Cmax in fasted Beagle dog at 10 mg/kg, po measured for 24 hrs by LC-MS analysis. Format: ADME, organism-based, Canis lupus familiaris. The conditions noted are these: in vivo.
A short description of series [6]: Plasma protein binding in mouse at 2 uM incubated for 1 hr by LC/MS analysis. The conditions noted are these: read-out: PPB (converted). Format: ADME, cell-free.
A short description of series [7]: Metabolic stability in monkey liver microsomes assessed as intrinsic clearance preincubated for 5 mins followed by NADPH addition measured for 1 hr by LC-MS analysis. Format: ADME, Macaca mulatta, Microsome. The conditions noted are these: rhesus monkey, time 65 min, read-out: CLH.

Structures are written as SMILES.

As to `O=C(CCOC[C@@H]1CCN1c1cn[nH]c(=O)c1C(F)(F)F)N1CCN2c3ncc(C(F)(F)F)cc3OC[C@@H]2C1`, the Tmax in series [1] was found to be 0.4 h. In series [2], this molecule came in with a bioavailability of 33.9%. In addition, the Activity result in series [3] is “Non-Toxic”. Besides, the t1/2 in series [4] came out at 3.6 h. The molecule also yielded a Cmax in series [5] of 2300 ng/mL. Besides, in series [6], the fraction unbound at 1 h, 2 µM is 0.019. Further, the CLint scaled in series [7] came to 79.2 mL/min/kg.

Source of the values: ChEMBL document CHEMBL5634130, “Exploring the structural-activity relationship of hexahydropyrazino[1,2-d]pyrido[3,2-b][1,4]oxazine derivatives as potent and orally-bioavailable PARP7 inhibitors” (Eur J Med Chem, 2023).
